The record followed here is ChEMBL document CHEMBL4651402, “Screening of ~5500 FDA-approved drugs and clinical candidates for anti-SARS-CoV-2 activity” (2021).

A value given as a limit tells only on which side of the number the result lay.

The first data set deals with SARS-CoV-2. Put plainly: microbe, parasite or virus in culture. Format: functional, organism-based, Chlorocebus sabaeus, Vero C1008. The following applies: Severe acute respiratory syndrome coronavirus 2, Vero C1008, 48 h; read-out: IC50.
As to `CC(C)(Cc1c[nH]c2ccccc12)NCC(O)COc1ccccc1C#N` (stereo unspecified) [BUCINDOLOL], the IC50 was over 100 µM.
On to `CNC(=O)[C@@H](c1ccccc1)N1CCc2cc(OC)c(OC)cc2[C@@H]1CCc1ccc(C(F)(F)F)cc1` [ALMOREXANT], for which the IC50 is over 25.1 µM.
On the same count and under the same terms, next, `CC1(C)CCC(c2ccc(Cl)cc2)=C(CN2CCN(c3ccc(C(=O)NS(=O)(=O)c4ccc(N[C@H](CCN5CCOCC5)CSc5ccccc5)c(S(=O)(=O)C(F)(F)F)c4)cc3)CC2)C1` [NAVITOCLAX]: over 100 µM; `O=C(c1ccc(F)cc1)C1CCN(CCCn2c(=O)[nH]c3cc(Cl)ccc32)CC1` [MILENPERONE]: over 100 µM.
Regarding `O=C(Nc1ccccc1)OCC(CN1CCCCC1)OC(=O)Nc1ccccc1` (stereo unspecified) [DIPERODON], the IC50 was over 25.1 µM.
Turning to `COc1cc(/C=C/C(=O)N2CCC=CC2=O)cc(OC)c1OC` [PIPLARTINE], the IC50 is over 50.1 µM.
The same measure, in the same setting: the result for `Cc1cc2cc(Oc3ccnc(Nc4cccc(CS(=O)(=O)NCCN(C)C)c4)n3)ccc2[nH]1` [SURUFATINIB] reads over 50.1 µM; that for `CN1CCC(COc2cnc(-c3cccc(Cn4nc(-c5cccc(C#N)c5)ccc4=O)c3)nc2)CC1` [TEPOTINIB], over 100 µM; that for `CCOC(=O)Nc1ccc(NCc2ccc(F)cc2)nc1N` [FLUPIRTINE], over 100 µM.
On the same count and under the same terms, next, `COC(=O)C1C2CC3c4[nH]c5cc(OC)ccc5c4CCN3CC2CC(OC(=O)/C=C/c2cc(OC)c(OC)c(OC)c2)C1OC` (stereo unspecified): over 100 µM; `NC(=O)C1CN(CCCCC(c2ccc(F)cc2)c2ccc(F)cc2)CCN1CC(=O)Nc1c(Cl)cc(N)cc1Cl` (stereo unspecified) [DRAFLAZINE]: over 100 µM.

The same data set, now with this note: Severe acute respiratory syndrome coronavirus 2, Vero C1008, 48 h; read-out: pIC50 (converted).
Take `CC(C)(Cc1c[nH]c2ccccc12)NCC(O)COc1ccccc1C#N` (stereo unspecified) [BUCINDOLOL]: the IC50 is over 100 µM.
Same read-out and setting: the result for `CNC(=O)[C@@H](c1ccccc1)N1CCc2cc(OC)c(OC)cc2[C@@H]1CCc1ccc(C(F)(F)F)cc1` [ALMOREXANT] reads over 25.1 µM; that for `CC1(C)CCC(c2ccc(Cl)cc2)=C(CN2CCN(c3ccc(C(=O)NS(=O)(=O)c4ccc(N[C@H](CCN5CCOCC5)CSc5ccccc5)c(S(=O)(=O)C(F)(F)F)c4)cc3)CC2)C1` [NAVITOCLAX], over 100 µM.
As for `O=C(c1ccc(F)cc1)C1CCN(CCCn2c(=O)[nH]c3cc(Cl)ccc32)CC1` [MILENPERONE], the IC50 is over 100 µM.
On the same count and under the same terms, the result for `O=C(Nc1ccccc1)OCC(CN1CCCCC1)OC(=O)Nc1ccccc1` (stereo unspecified) [DIPERODON] reads over 25.1 µM; that for `COc1cc(/C=C/C(=O)N2CCC=CC2=O)cc(OC)c1OC` [PIPLARTINE], over 50.1 µM.
Consider `Cc1cc2cc(Oc3ccnc(Nc4cccc(CS(=O)(=O)NCCN(C)C)c4)n3)ccc2[nH]1` [SURUFATINIB], for which the IC50 is over 50.1 µM.
With `CN1CCC(COc2cnc(-c3cccc(Cn4nc(-c5cccc(C#N)c5)ccc4=O)c3)nc2)CC1` [TEPOTINIB], the IC50 is over 100 µM.
On to `CCOC(=O)Nc1ccc(NCc2ccc(F)cc2)nc1N` [FLUPIRTINE], for which the IC50 is over 100 µM.
Turning to `COC(=O)C1C2CC3c4[nH]c5cc(OC)ccc5c4CCN3CC2CC(OC(=O)/C=C/c2cc(OC)c(OC)c(OC)c2)C1OC` (stereo unspecified), the IC50 was over 100 µM.
As for `NC(=O)C1CN(CCCCC(c2ccc(F)cc2)c2ccc(F)cc2)CCN1CC(=O)Nc1c(Cl)cc(N)cc1Cl` (stereo unspecified) [DRAFLAZINE], the IC50 was over 100 µM.

Test system in the next data set: not listed separately
Put plainly: in vitro. The following applies: chlorocebus sabaeus, Vero E6 (Vero C1008) cells, CC50.
With `CC(C)(Cc1c[nH]c2ccccc12)NCC(O)COc1ccccc1C#N` (stereo unspecified) [BUCINDOLOL], the CC50 at 48 h came out at 30.9 µM.
In turn, `CNC(=O)[C@@H](c1ccccc1)N1CCc2cc(OC)c(OC)cc2[C@@H]1CCc1ccc(C(F)(F)F)cc1` [ALMOREXANT] displayed a CC50 at 48 h of 21.4 µM.
With `CC1(C)CCC(c2ccc(Cl)cc2)=C(CN2CCN(c3ccc(C(=O)NS(=O)(=O)c4ccc(N[C@H](CCN5CCOCC5)CSc5ccccc5)c(S(=O)(=O)C(F)(F)F)c4)cc3)CC2)C1` [NAVITOCLAX], the CC50 at 48 h came to 4.73 µM.
The compound `O=C(c1ccc(F)cc1)C1CCN(CCCn2c(=O)[nH]c3cc(Cl)ccc32)CC1` [MILENPERONE] displayed a CC50 at 48 h of 32.4 µM.
`O=C(Nc1ccccc1)OCC(CN1CCCCC1)OC(=O)Nc1ccccc1` (stereo unspecified) [DIPERODON] gave a CC50 at 48 h of over 25.1 µM.
`COc1cc(/C=C/C(=O)N2CCC=CC2=O)cc(OC)c1OC` [PIPLARTINE] had a CC50 at 48 h of 9.55 µM.
In turn, `Cc1cc2cc(Oc3ccnc(Nc4cccc(CS(=O)(=O)NCCN(C)C)c4)n3)ccc2[nH]1` [SURUFATINIB] yielded a CC50 at 48 h of 4.9 µM.
The compound `CN1CCC(COc2cnc(-c3cccc(Cn4nc(-c5cccc(C#N)c5)ccc4=O)c3)nc2)CC1` [TEPOTINIB] came in with a CC50 at 48 h of 5.75 µM.
For the compound `CCOC(=O)Nc1ccc(NCc2ccc(F)cc2)nc1N` [FLUPIRTINE], the CC50 at 48 h is over 100 µM.
`COC(=O)C1C2CC3c4[nH]c5cc(OC)ccc5c4CCN3CC2CC(OC(=O)/C=C/c2cc(OC)c(OC)c(OC)c2)C1OC` (stereo unspecified) registered a CC50 at 48 h of 5.5 µM.
On the same count and under the same terms, next, `NC(=O)C1CN(CCCCC(c2ccc(F)cc2)c2ccc(F)cc2)CCN1CC(=O)Nc1c(Cl)cc(N)cc1Cl` (stereo unspecified) [DRAFLAZINE]: 9.66 µM.

The same data set, now with this note: chlorocebus sabaeus, Vero E6 (Vero C1008) cells, pCC50.
For the compound `CC(C)(Cc1c[nH]c2ccccc12)NCC(O)COc1ccccc1C#N` (stereo unspecified) [BUCINDOLOL], the CC50 at 48 h is 30.9 µM.
`CNC(=O)[C@@H](c1ccccc1)N1CCc2cc(OC)c(OC)cc2[C@@H]1CCc1ccc(C(F)(F)F)cc1` [ALMOREXANT]: the CC50 at 48 h was 21.4 µM.
In turn, `CC1(C)CCC(c2ccc(Cl)cc2)=C(CN2CCN(c3ccc(C(=O)NS(=O)(=O)c4ccc(N[C@H](CCN5CCOCC5)CSc5ccccc5)c(S(=O)(=O)C(F)(F)F)c4)cc3)CC2)C1` [NAVITOCLAX] gave a CC50 at 48 h of 4.68 µM.
As for `O=C(c1ccc(F)cc1)C1CCN(CCCn2c(=O)[nH]c3cc(Cl)ccc32)CC1` [MILENPERONE], the CC50 at 48 h was 32.4 µM.
The compound `O=C(Nc1ccccc1)OCC(CN1CCCCC1)OC(=O)Nc1ccccc1` (stereo unspecified) [DIPERODON] gave a CC50 at 48 h of over 25.1 µM.
The compound `COc1cc(/C=C/C(=O)N2CCC=CC2=O)cc(OC)c1OC` [PIPLARTINE] had a CC50 at 48 h of 9.55 µM.
Still for that read-out and setting: next, `Cc1cc2cc(Oc3ccnc(Nc4cccc(CS(=O)(=O)NCCN(C)C)c4)n3)ccc2[nH]1` [SURUFATINIB]: 4.9 µM.
For `CN1CCC(COc2cnc(-c3cccc(Cn4nc(-c5cccc(C#N)c5)ccc4=O)c3)nc2)CC1` [TEPOTINIB], half-maximal cytotoxicity (CC50 at 48 h) was put at 5.75 µM.
Still for that read-out and setting: the result for `CCOC(=O)Nc1ccc(NCc2ccc(F)cc2)nc1N` [FLUPIRTINE] reads over 100 µM.
In the case of `COC(=O)C1C2CC3c4[nH]c5cc(OC)ccc5c4CCN3CC2CC(OC(=O)/C=C/c2cc(OC)c(OC)c(OC)c2)C1OC` (stereo unspecified), the midpoint of cytotoxicity, the CC50 at 48 h, lay at 5.5 µM.
Regarding `NC(=O)C1CN(CCCCC(c2ccc(F)cc2)c2ccc(F)cc2)CCN1CC(=O)Nc1c(Cl)cc(N)cc1Cl` (stereo unspecified) [DRAFLAZINE], the CC50 at 48 h is 9.55 µM.

A further data set deals with SARS-CoV-2. Put plainly: microbe, parasite or virus in culture. The following applies: Severe acute respiratory syndrome coronavirus 2, Vero C1008, 48 h.
`CC(C)(Cc1c[nH]c2ccccc12)NCC(O)COc1ccccc1C#N` (stereo unspecified) [BUCINDOLOL] registered an IC50 of 17 µM.
In turn, `CNC(=O)[C@@H](c1ccccc1)N1CCc2cc(OC)c(OC)cc2[C@@H]1CCc1ccc(C(F)(F)F)cc1` [ALMOREXANT] displayed an IC50 of 18.6 µM.
`CC1(C)CCC(c2ccc(Cl)cc2)=C(CN2CCN(c3ccc(C(=O)NS(=O)(=O)c4ccc(N[C@H](CCN5CCOCC5)CSc5ccccc5)c(S(=O)(=O)C(F)(F)F)c4)cc3)CC2)C1` [NAVITOCLAX] registered an IC50 of over 100 µM.
On the same count and under the same terms, the result for `O=C(c1ccc(F)cc1)C1CCN(CCCn2c(=O)[nH]c3cc(Cl)ccc32)CC1` [MILENPERONE] reads over 100 µM.
The same measure, in the same setting: the result for `O=C(Nc1ccccc1)OCC(CN1CCCCC1)OC(=O)Nc1ccccc1` (stereo unspecified) [DIPERODON] reads 15.1 µM; that for `COc1cc(/C=C/C(=O)N2CCC=CC2=O)cc(OC)c1OC` [PIPLARTINE], over 50.1 µM.
Still for that read-out and setting: the result for `Cc1cc2cc(Oc3ccnc(Nc4cccc(CS(=O)(=O)NCCN(C)C)c4)n3)ccc2[nH]1` [SURUFATINIB] reads over 10 µM.
Compound `CN1CCC(COc2cnc(-c3cccc(Cn4nc(-c5cccc(C#N)c5)ccc4=O)c3)nc2)CC1` [TEPOTINIB] yielded an IC50 of over 100 µM.
`CCOC(=O)Nc1ccc(NCc2ccc(F)cc2)nc1N` [FLUPIRTINE] returned an IC50 of over 100 µM.
As to `COC(=O)C1C2CC3c4[nH]c5cc(OC)ccc5c4CCN3CC2CC(OC(=O)/C=C/c2cc(OC)c(OC)c(OC)c2)C1OC` (stereo unspecified), the IC50 was over 50.1 µM.
`NC(=O)C1CN(CCCCC(c2ccc(F)cc2)c2ccc(F)cc2)CCN1CC(=O)Nc1c(Cl)cc(N)cc1Cl` (stereo unspecified) [DRAFLAZINE] returned an IC50 of over 100 µM.

Staying with this data set, now noted: Severe acute respiratory syndrome coronavirus 2, Vero C1008, 48 h, read-out: pIC50 (converted).
As for `CC(C)(Cc1c[nH]c2ccccc12)NCC(O)COc1ccccc1C#N` (stereo unspecified) [BUCINDOLOL], the IC50 was 17 µM.
Take `CNC(=O)[C@@H](c1ccccc1)N1CCc2cc(OC)c(OC)cc2[C@@H]1CCc1ccc(C(F)(F)F)cc1` [ALMOREXANT]: the IC50 is 18.6 µM.
Same read-out and setting: the result for `CC1(C)CCC(c2ccc(Cl)cc2)=C(CN2CCN(c3ccc(C(=O)NS(=O)(=O)c4ccc(N[C@H](CCN5CCOCC5)CSc5ccccc5)c(S(=O)(=O)C(F)(F)F)c4)cc3)CC2)C1` [NAVITOCLAX] reads over 100 µM; that for `O=C(c1ccc(F)cc1)C1CCN(CCCn2c(=O)[nH]c3cc(Cl)ccc32)CC1` [MILENPERONE], over 100 µM.
The same measure, in the same setting: the result for `O=C(Nc1ccccc1)OCC(CN1CCCCC1)OC(=O)Nc1ccccc1` (stereo unspecified) [DIPERODON] reads 15.1 µM.
On to `COc1cc(/C=C/C(=O)N2CCC=CC2=O)cc(OC)c1OC` [PIPLARTINE], for which the IC50 was over 50.1 µM.
Take `Cc1cc2cc(Oc3ccnc(Nc4cccc(CS(=O)(=O)NCCN(C)C)c4)n3)ccc2[nH]1` [SURUFATINIB]: the IC50 was over 10 µM.
Still for that read-out and setting: next, `CN1CCC(COc2cnc(-c3cccc(Cn4nc(-c5cccc(C#N)c5)ccc4=O)c3)nc2)CC1` [TEPOTINIB]: over 100 µM; `CCOC(=O)Nc1ccc(NCc2ccc(F)cc2)nc1N` [FLUPIRTINE]: over 100 µM.
As for `COC(=O)C1C2CC3c4[nH]c5cc(OC)ccc5c4CCN3CC2CC(OC(=O)/C=C/c2cc(OC)c(OC)c(OC)c2)C1OC` (stereo unspecified), the IC50 was over 50.1 µM.
On the same count and under the same terms, next, `NC(=O)C1CN(CCCCC(c2ccc(F)cc2)c2ccc(F)cc2)CCN1CC(=O)Nc1c(Cl)cc(N)cc1Cl` (stereo unspecified) [DRAFLAZINE]: over 100 µM.

The term CC50 denotes the concentration giving 50% cytotoxicity.
